In ChEMBL document CHEMBL5058564, “EUbOPEN Chemogenomics Library 2 (Incucyte)” (2022):
“And” between values parts separate entries of the source, which are not always exact repeats. Identical values can stand only once. *1 amine or outer side, *2 acyl side, *3 side chain or, on linkers, in order; H or OH if unused. Where a SMILES comes first, the peptide text is derived from it. Bridges are numbered along the chain shown (N, C = ends). X1 = O=C(CCC[*:2])[*:1]

Legend:
Assay type in all cases: toxicity, cell-based
Fibroblast = experiment: Incucyte cell viability with human fibroblast; conditions: 10 µM, compound concentration 10 uM
U2OS = experiment: Incucyte cell viability with U2OS; conditions: human, 10 µM, compound concentration 10 uM
HEK-293T = experiment: Incucyte cell viability with HEK293T; conditions: human, 10 µM, compound concentration 10 uM
[1] = 0 h, replicate number 1, timepoint 0 hours
[2] = 0 h, replicate number 2, timepoint 0 hours
[3] = 6 h, replicate number 1, timepoint 6 hours
[4] = 6 h, replicate number 2, timepoint 6 hours
[5] = 18 h, replicate number 1, timepoint 18 hours
[6] = 18 h, replicate number 2, timepoint 18 hours
[7] = 12 h, replicate number 1, timepoint 12 hours
[8] = 12 h, replicate number 2, timepoint 12 hours
[9] = 24 h, replicate number 1, timepoint 24 hours
[10] = 24 h, replicate number 2, timepoint 24 hours
Further: unitless GR value; below 1 slowed growth and below 0 cell loss.

SMILES | Growth Rate (Fibroblast; [1]) | Growth Rate (Fibroblast; [2]) | Growth Rate (Fibroblast; [3]) | Growth Rate (U2OS; [1]) | Growth Rate (U2OS; [4]) | Growth Rate (U2OS; [5]) | Growth Rate (U2OS; [6]) | Growth Rate (HEK-293T; [1]) | Growth Rate (HEK-293T; [2]) | Growth Rate (HEK-293T; [7]) | Growth Rate (U2OS; [2]) | Growth Rate (U2OS; [8]) | Growth Rate (HEK-293T; [9]) | Growth Rate (Fibroblast; [7]) | Growth Rate (Fibroblast; [8]) | Growth Rate (Fibroblast; [5]) | Growth Rate (Fibroblast; [9]) | Growth Rate (U2OS; [10]) | Growth Rate (HEK-293T; [4]) | Growth Rate (HEK-293T; [5]) | also measured
Cc1ccc(C(C)(O)c2nc3ccccc3s2)c(C)c1 (stereo unspecified) | 0.44 | 0.92 | 0.67 | -0.06 | 0.88 | 0.99 | 0.95 | 0.98 | 0.84 | 0.99 |  |  |  |  |  |  |  |  |  |  | 
Cc1nn(C)c2nc(NNC(=O)Nc3cc(Cl)nc(Cl)c3)cc(C(C)C)c12 | 0.09 | 0.58 |  |  |  |  |  | 0.64 | 0.57 |  | -1 | 0.96 | 0.97 |  |  |  |  |  |  |  | 
O=C(O)c1n[nH]c2c1C[C@H]1C[C@@H]21 | 0.67 | 0.18 and 0.32 | 0.39 and 0.14 |  | 0.74 |  | 0.91 and 0.92 | 0.7 | 0.85 | 0.71 |  | 0.86 | 0.7 | 0.55 and 0.57 | 0.86 | 0.72 and 0.87 | 0.63 and 0.53 | 1 | 0.86 and 0.89 | 0.67 | Growth Rate (Fibroblast; [4]): 0.95 and 0.74; Growth Rate (Fibroblast; [6]): 0.89; Growth Rate (Fibroblast; [10]): 0.79; Growth Rate (U2OS; [3]): -0.58; Growth Rate (U2OS; [9]): 0.99; Growth Rate (HEK-293T; [3]): 0.55; Growth Rate (HEK-293T; [8]): 0.64; Growth Rate (HEK-293T; [6]): 0.58; Growth Rate (HEK-293T; [10]): 0.58
Cc1ccc(-c2ccc(F)cc2COc2ccc(CCC(=O)O)cc2)cc1 |  | 0.45 | 0.23 | -0.34 |  |  |  | 0.43 | 0.55 |  | -0.59 |  |  | 0.58 |  | 0.18 | 0.42 |  |  |  | 
C(#Cc1cccc(CN2CCOCC2)c1)CCN1CCCCC1 |  |  | 0.03 | 0.35 |  |  |  | 0.61 | 0.63 | 0.91 | -1 |  | 0.73 | 0.14 | 0.09 | 0.39 | 0.28 |  |  | 0.78 | Growth Rate (Fibroblast; [4]): 0.09; Growth Rate (Fibroblast; [6]): 0.23; Growth Rate (Fibroblast; [10]): 0.26
CSCC[C@H](NC=O)C(=O)N[C@@H](CC(C)C)C(=O)N[C@@H](Cc1ccccc1)C(=O)O | 0.43 | 0.65 | 0.81 |  | 0.44 |  | 0.92 | 0.95 | 0.68 | 1 |  | 0.83 | 0.82 | 0.83 | 0.46 | 0.58 | 0.27 | 0.97 | 0.85 | 0.78 | Growth Rate (Fibroblast; [4]): 0.42; Growth Rate (Fibroblast; [6]): 0.69; Growth Rate (Fibroblast; [10]): 0.36; Growth Rate (HEK-293T; [8]): 0.9
CCCn1c(=O)c2[nH]c(-c3ccc(OCC(=O)Nc4ccc(C#N)cc4)cc3)nc2n(CCC)c1=O |  |  |  | 0.37 |  |  |  |  | 0.64 | 0.85 | -1 |  |  |  |  |  |  |  |  | 0.94 | Growth Rate (HEK-293T; [3]): 0.24
Cc1cnc(-c2cc(N3CCN(C(=O)CCS(C)(=O)=O)CC3)ncc2Cl)c(C)c1 |  |  | 0.66 |  | 0.63 |  | 0.92 | 0.65 | 0.96 |  |  |  |  | 0.76 | 0.17 | 0.94 | 0.94 |  |  |  | Growth Rate (Fibroblast; [4]): 0.05; Growth Rate (Fibroblast; [6]): 0.71
O=C1NC(=O)C(c2ccccc2[N+](=O)[O-])=C1Nc1ccc(O)c(Cl)c1 | -0.16 | 0.11 |  | 0.02 |  |  |  | 0.17 | 0.13 |  | -1 |  |  |  |  |  |  |  |  |  | Growth Rate (U2OS; [7]): 0.95; Growth Rate (U2OS; [9]): 0.84
CN(C)c1ccnc2sc3c(=O)n(N4CCCCCC4)cnc3c12 |  |  | -0.22 |  |  | 0.51 | 0.91 | 0.91 | 0.47 |  | -1 |  |  | -0.14 | 0.1 | -0.36 | -0.42 |  | 0.98 |  | Growth Rate (Fibroblast; [6]): 0.11; Growth Rate (Fibroblast; [10]): -0.22; Growth Rate (U2OS; [3]): 0.61; Growth Rate (U2OS; [7]): 0.54; Growth Rate (U2OS; [9]): 0.78
COc1cc(C(=O)N(CCCc2ccccc2)Cc2ccc(CC(=O)O)cc2)cc(OC)c1C | -0.55 | 0.01 |  | -0.86 | 0.79 |  | 0.97 | 0.55 | 0.84 |  |  | 0.94 |  |  |  |  |  | 0.96 |  |  | 
CSCC[C@H](NC(=O)[C@@H]1CCCN1C(=O)CNC(=O)[C@H](CCCCN)NC(=O)[C@H](Cc1cnc[nH]1)NC(=O)[C@H](CO)NC(=O)[C@H](CC(C)C)NC(=O)[C@H](CCCNC(=N)N)NC(=O)[C@@H]1CCCN1C(=O)[C@H](CCCNC(=N)N)NC(=O)[C@@H](N)CCC(N)=O)C(=O)N1CCC[C@H]1C(=O)N[C@@H](Cc1ccccc1)C(=O)O | 0.13 | 0.64 |  |  | 0.73 |  | 0.91 | 0.46 | 0.65 |  | -0.88 |  | 0.74 |  | 0.8 |  | 0.88 | 0.94 |  | 0.97 | 
CCOc1ccc(Cc2nc3cc(C(=O)N(CC)CC)ccc3n2CC2CCCCC2)cc1 | 0.96 |  |  | -0.21 |  |  | 1 | 0.75 | 0.57 | 0.75 | -1 |  | 0.93 |  | 0.58 |  |  |  | 0.53 | 0.86 | Growth Rate (Fibroblast; [4]): 0.61; Growth Rate (Fibroblast; [6]): 0.98
CC(C)c1cc(-c2ccc(F)c3ccccc23)nc(N)n1 | -0.03 |  | 0.51 |  | 0.83 | 0.86 | 0.79 | 0.46 | 0.76 |  | -0.96 |  |  | 0.58 |  | 0.4 | 0.62 | 0.89 | 0.72 |  | Growth Rate (U2OS; [3]): 0.62; Growth Rate (U2OS; [7]): 0.81; Growth Rate (U2OS; [9]): 0.73
CCCOc1ccc2[nH]cc(C3=CCNCC3)c2n1.Cl |  |  |  |  |  | 0.82 | 0.95 |  |  |  |  | 0.93 |  |  |  |  |  | 0.93 | 0.51 |  | Growth Rate (U2OS; [3]): 0.81; Growth Rate (U2OS; [7]): 0.67; Growth Rate (U2OS; [9]): 0.92; Growth Rate (HEK-293T; [8]): 0.75; Growth Rate (HEK-293T; [6]): 0.95
CC[C@H](C)[C@@H]1NC(=O)[C@H](Cc2ccc(OC)cc2)NC(=O)CCCSC[C@@H](C(=O)N2CCC[C@H]2C(=O)N[C@@H](CC(C)C)C(=O)NCC(N)=O)NC(=O)[C@H](CC(N)=O)NC(=O)[C@H](CCC(N)=O)NC1=O [CARBETOCIN] (Y(Me)IQNCPLG-NH2; linker N-5 via X1) | 0.35 | 0.98 |  |  |  |  |  | 0.31 | -0.11 | 0.63 |  |  | 0.89 |  |  | 0.85 | 0.54 |  |  | 0.76 | Growth Rate (HEK-293T; [3]): 1; Growth Rate (HEK-293T; [6]): 1; Growth Rate (HEK-293T; [10]): 0.92
CN1CCN2c3ccccc3Cc3ccccc3C2C1.Cl (stereo unspecified) [MIANSERIN HYDROCHLORIDE] |  |  |  |  | 0.85 | 0.96 | 0.94 |  | 0.8 |  | -1 | 0.97 |  |  |  |  |  | 0.97 |  |  | 
CN1CCN2c3ncccc3Cc3ccccc3C2C1 (stereo unspecified) [MIRTAZAPINE] |  |  |  |  |  |  | 0.79 |  |  |  | -0.76 | 0.97 |  |  |  |  |  | 0.85 | 0.53 |  | Growth Rate (U2OS; [7]): 0.81; Growth Rate (U2OS; [9]): 0.96
C[C@H](NC(=O)c1c(C(F)F)nn(C)c1Oc1cccc(C(F)(F)F)c1)c1ccc(C(=O)O)cc1 [PALUPIPRANT] | 0.19 | 0.08 |  | -0.16 |  | 0.93 |  |  |  |  | -1 |  |  |  |  | 0.96 |  |  |  |  | 
